{RR} = two arginine residues at the PNA terminus
Tests used:
PBMC cells = assay: Safety assessment by trypan blue assay in PBMC; assay type: cell-based; conditions: 500-4000 nM, 48 hours
Method: Control is PBS treated PBMC cells. n=3, data represented as mean±standard error mean (SEM).
Safety assessment by trypan blue assay […] blood mononuclear cells (PBMC) (ATCC® PCS-800-011™) were purchased from ATCC (Virginia, USA). The cells were regularly tested for Mycoplasma contamination using MycoAlert™ Mycoplasma detection kit (Lonza). All the cells used in the experiment were passaged less than 2 times. 10,000 PBMC cells were seeded in a 96 well plate. The cells were treated with 500 nM, 1000 nM, 2000 nM and 4000 nM PNA-155 and γtcPNA-155 for 48 hrs in an incubator. The dead cells were examined with trypan blue and further counted using an automated cell counter (Bio-rad).

miR-155 downstream genes = assay: Gene expression of miR-155 downstream genes by RT-PCR in U2932 cells; assay type: cell-based, human; conditions: U2932, 500 nM, 48 hours
Method: FIGS. 3A-F show cell culture-based functional assay in U2932 lymphoma cells. (3A) γtcPNA-155-TAMRA uptake in the U2932 lymphoma cell line: Representative flow cytometry traces of TAMRA fluorescence in U2932 cells after treatment with 500 nM dose of γtcPNA-155-TAMRA for 48 hours. The data was analyzed by FlowJo software. (3B) Normalized miR-155 gene expression levels in U2932 after treatment with phosphate buffer saline (PBS) as a control and with 500 nM dose of Scr-γtcPNA-155, PNA-155, γPNA-155 and γtcPNA-155 for 48 hours compared to average control U6 (n=3), data represented as mean±standard error mean (SEM), Statistical analysis was performed using Unpaired two-tailed t-test. Further, statistical analysis was performed relative to Scr-γtcPNA-155 treated cells. ***p<0.001. (3C) Gene expression level of miR-155 downstream genes, tumor suppressor proteins (FOXO3A, CUX1, SOCS1, CSF1R, JARID2, SHIP1, PICALM, PDCD4, BACH1, WEE1, TP53TG3, CASP3, PTEN) in U2932 cell line after treatment with PBS as a control and with after treatment with 500 nM of Scr-γtcPNA-155, PNA-155, γPNA-155 and γtcPNA-155 for 48 hours. Data is normalized with average GAPDH control (n=3), and represented as mean±SEM, *p<0.05. Unpaired two-tailed t-test was used for statistical analysis and analysis was performed relative to Scr-γtcPNA-155 treated cells. (3D) Gene expression level of miR-155 downstream genes MCL1 in U2932 cell line after treatment with PBS as a control and 500 nM of Scr-γtcPNA-155, PNA-155, γPNA-155 and γtcPNA-155 for 48 hours. Data is normalized with average GAPDH control (n=3), and represented as mean±SEM, *p<0.05, **p<0.01 and ***p<0.001. Statistical analysis was performed using Unpaired two-tailed t-test. Analysis was performed relative to Scr-γtcPNA-155 treated cells. (3E) Representative western blot of Mcl-1 and its quantification (n=3 technical replicate) and (3F) Caspase-3 protein and its quantification (n=3 technical replicate) in U2932 cell line after treatment with 500 nM of Scr-γtcPNA-155, PNA-155 and γtcPNA-155 for 48 hours. Data is represented as mean±SEM and unpaired two-tailed t-test was used for statistical analysis. *p<0.05 **p<0.01. Numbers above western blot panels represent relative quantification of the respective bands using ImageJ software and normalized relative to loading control and treatment control.
Gene expression by RT-PCR: 400,000 U2932 cells were seeded in a 12 well plate. The cells were treated with 500 nM PNA-155, gamma tcPNA-155, gamma PNA-155, Scr gamma tcPNA-155 or were PBS treated (control) for 48 hrs in an incubator (37° C. and 5% CO2). The cells were centrifuged at 2000 rpm for 4 mins at 4° C. The total RNA from the cell pellet was extracted using RNeasy® mini kit (Qiagen). The cDNA was prepared in thermal cycler (Bio-rad) using reverse transcriptase, RNase inhibitor, dNTPs, nuclease-free water and RT primers specific for miR-155 and U6. Random primers were used for the preparation of cDNA for downstream targets. The cDNA was amplified using miR-155 assay, U6 assay, or specific downstream target assays in CFX Connect™ Real-time PCR detection system (Bio-rad). The samples were subjected to polymerase activation (95° C. for 10 mins), followed by 40 cycles of denaturation (95° C. for 15 sec) and annealing (60° C. for 1 min). The 2^−ΔΔCT method was used to calculate the fold change in target genes.

Substance	viability of PBMC cell lines (PBMC cells)	reduction in MCL1 gene expression levels (miR-155 downstream genes) [%]	de-repression of miR-155 target tumor suppressor genes (miR-155 downstream genes)	increase in CSF1R levels (miR-155 downstream genes; in comparison to PNA-155) [fold]	increase in CUX1 levels (miR-155 downstream genes; in comparison to PNA-155) [fold]	increase in SHIP1 levels (miR-155 downstream genes; in comparison to PNA-155) [fold]
PNA-155: conventional full-length regular PNA (23mer), RR-ACCCCTATCACGATTAGCATTAA-RR, SEQ ID NO: 1 (all peptide nucleic acid (PNA), 5' {RR}, 3' {RR}) [reference compound]	did not notice a significant reduction in viability	10				
γtcPNA-155: serine gamma tail-clamp anti-miR-155 PNA, RR-TJJJJ-OOO-ACCCCTATCACGATTAGCATTAA-RR, SEQ ID NO: 3 (all peptide nucleic acid (PNA); serine gamma PNA, tail-clamp TJJJJ via linkers, Arg-Arg at both ends)	did not notice a significant reduction in viability	40	significant de-repression	1.8	1.6	1.4

Source: patent US20260092085A1, “SYNTHETIC TRIPLEX PEPTIDE NUCLEIC ACID-BASED INHIBITORS FOR CANCER THERAPY” (University of Connecticut, priority 2022, published 2026)
